Reference: US8324172B2, “G protein coupled receptor agonists and antagonists and methods of activating and inhibiting G protein coupled receptors using the same” (Tufts Medical Center, Inc., priority 2000, dated 2012)
Entries after “also recorded” stand apart in the source; their conditions may differ. Where a SMILES comes first, the peptide text is derived from it. Where no end group is shown, it is not given here. The star is where a group is joined. Palmitoyl = CCCCCCCCCCCCCCCC(=O)*

Experiments:
cholecystokinin B (CCKB) = target: T1, cholecystokinin B (CCKB) (Homo sapiens, UniProt P32239); assay: InsP formation in COS7 cells expressing CCKB; assay type: cell-based; conditions: relative to 300 nM CCK-8
T1 construct: expressed in transfected cells; host or cells: COS7, transient
T1 sequence (P32239 1-447): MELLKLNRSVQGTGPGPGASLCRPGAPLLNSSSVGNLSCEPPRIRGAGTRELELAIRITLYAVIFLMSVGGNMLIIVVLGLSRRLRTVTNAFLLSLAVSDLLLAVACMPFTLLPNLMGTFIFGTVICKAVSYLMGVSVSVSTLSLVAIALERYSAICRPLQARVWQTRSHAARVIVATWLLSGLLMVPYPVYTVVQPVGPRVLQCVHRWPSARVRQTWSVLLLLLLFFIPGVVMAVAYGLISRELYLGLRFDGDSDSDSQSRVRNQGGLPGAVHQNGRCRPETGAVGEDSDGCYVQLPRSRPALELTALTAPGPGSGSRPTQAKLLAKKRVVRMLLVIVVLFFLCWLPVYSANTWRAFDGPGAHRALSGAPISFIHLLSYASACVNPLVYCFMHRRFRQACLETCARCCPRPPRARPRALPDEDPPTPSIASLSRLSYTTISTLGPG

platelets = assay: Platelet intracellular Ca2+, agonist activity of peptides
PAR1 [1] = target: T2, PAR1 (Homo sapiens, UniProt P25116); assay: InsP formation (PLC-β) in Rat1 fibroblasts expressing human PAR1; assay type: cell-based
T2 construct: expressed in transfected cells
T2 sequence (P25116 22-425): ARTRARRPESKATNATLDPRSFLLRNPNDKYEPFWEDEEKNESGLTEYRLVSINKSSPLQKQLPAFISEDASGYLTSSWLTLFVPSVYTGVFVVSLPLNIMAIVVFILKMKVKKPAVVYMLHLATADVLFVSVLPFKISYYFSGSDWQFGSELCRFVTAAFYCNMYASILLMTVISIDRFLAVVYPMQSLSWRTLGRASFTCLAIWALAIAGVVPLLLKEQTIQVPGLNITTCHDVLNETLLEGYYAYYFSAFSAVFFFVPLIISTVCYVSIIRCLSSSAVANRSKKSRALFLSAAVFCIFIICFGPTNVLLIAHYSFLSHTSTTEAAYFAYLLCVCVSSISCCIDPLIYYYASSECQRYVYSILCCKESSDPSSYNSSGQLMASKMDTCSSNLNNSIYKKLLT

PAR1 [2] = target: T2, PAR1; assay: Inhibition of PAR1-dependent platelet Ca2+ signal; assay type: cell-based
Description: (§1) Platelet Ca2+ measurements were performed as in Example 1.
(§2) The integrated Ca^2+ response for the individual treatments are relative to the full Ca^2+ responses for each agonist (100%) recorded in the absence of P4pal-10 (top trace).

PAR4 [3] = target: T3, PAR4 (Homo sapiens, UniProt Q96RI0); assay: Inhibition of AYPGKF-induced human platelet aggregation; assay type: cell-based
T3 sequence (Q96RI0 18-385): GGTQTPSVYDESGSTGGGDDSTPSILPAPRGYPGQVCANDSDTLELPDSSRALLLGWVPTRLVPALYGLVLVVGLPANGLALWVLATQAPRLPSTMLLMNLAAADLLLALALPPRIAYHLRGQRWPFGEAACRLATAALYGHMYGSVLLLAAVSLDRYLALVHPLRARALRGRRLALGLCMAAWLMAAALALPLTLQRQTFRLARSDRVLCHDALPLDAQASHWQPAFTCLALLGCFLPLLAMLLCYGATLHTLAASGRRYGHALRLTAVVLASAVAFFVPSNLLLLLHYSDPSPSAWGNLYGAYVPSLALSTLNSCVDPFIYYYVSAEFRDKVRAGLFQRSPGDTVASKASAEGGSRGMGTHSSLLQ

PAR4 [4] = target: T3, PAR4; assay: Inhibition of PAR4-dependent platelet Ca2+ signal (AYPGKF); assay type: cell-based
Description: as §1, §2

[5] = target: T4, somatostatin receptor (SSTR2) (Rattus norvegicus, UniProt P30680); assay: InsP formation in COS7 cells expressing SSTR2; assay type: cell-based; conditions: relative to full response to 1 μM AGCKNFFWKTFTSC
T4 construct: expressed in transfected cells; host or cells: COS7, transient

[6] = 5 μM pepducin, SFLLRN followed by AYPGKF
[7] = 1.2-5 μM pepducin, AYPGKF first, then SFLLRN

T4 sequence (P30680 whole entry): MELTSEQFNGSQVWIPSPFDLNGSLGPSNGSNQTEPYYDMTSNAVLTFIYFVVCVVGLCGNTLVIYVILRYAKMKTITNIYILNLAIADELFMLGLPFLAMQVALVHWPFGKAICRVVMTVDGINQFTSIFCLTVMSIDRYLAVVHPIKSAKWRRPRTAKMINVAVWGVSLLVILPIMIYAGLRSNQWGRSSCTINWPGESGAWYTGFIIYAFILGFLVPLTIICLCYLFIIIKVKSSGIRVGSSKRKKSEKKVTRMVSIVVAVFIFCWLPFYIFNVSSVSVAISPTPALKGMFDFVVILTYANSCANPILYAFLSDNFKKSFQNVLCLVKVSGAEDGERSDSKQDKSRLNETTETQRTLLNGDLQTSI

**Q.** How did the “Agonist Efficacy” value (cholecystokinin B (CCKB)) turn out when `CCCCCCCCCCCCCCCC(=O)N[C@@H](CO)C(=O)NCC(=O)N[C@@H](CO)C(=O)N[C@@H](CCCNC(=N)N)C(=O)N1CCC[C@H]1C(=O)N[C@H](C(=O)N[C@@H](CCC(N)=O)C(=O)N[C@@H](C)C(=O)N[C@@H](CCCCN)C(=O)N[C@@H](CC(C)C)C(=O)N[C@@H](CC(C)C)C(=O)N[C@@H](C)C(=O)N[C@@H](CCCCN)C(=O)N[C@@H](CCCCN)C(=O)N[C@@H](CCCNC(=N)N)C(=O)N[C@H](C(=O)N[C@H](C(=O)N[C@@H](Cc1ccccc1)C(N)=O)C(C)C)C(C)C)[C@@H](C)O` [Bpal-18F] (Palmitoyl-SGSRPTQAKLLAKKRVVF-NH2) was run?
**A.** 13 ± 2%

**Q.** For `CCCCCCCCCCCCCCCC(=O)N[C@@H](CO)C(=O)NCC(=O)N[C@@H](CO)C(=O)N[C@@H](CCCNC(=N)N)C(=O)N1CCC[C@H]1C(=O)N[C@H](C(=O)N[C@@H](CCC(N)=O)C(=O)N[C@@H](C)C(=O)N[C@@H](CCCCN)C(=O)N[C@@H](CC(C)C)C(=O)N[C@@H](CC(C)C)C(=O)N[C@@H](C)C(=O)N[C@@H](CCCCN)C(=O)N[C@@H](CCCCN)C(=O)N[C@@H](CCCNC(=N)N)C(=O)N[C@H](C(=O)N[C@H](C(=O)N[C@@H](CCCNC(=N)N)C(N)=O)C(C)C)C(C)C)[C@@H](C)O` [Bpal-18] (Palmitoyl-SGSRPTQAKLLAKKRVVR-NH2), which “Agonist Efficacy” value (cholecystokinin B (CCKB)) is on record?
**A.** 12 ± 3%

**Q.** For `CCCCCCCCCCCCCCCC(=O)O` [Palmitic acid, reference compound], which “agonist activity, platelet intracellular Ca2+” value (platelets) is on record?
**A.** has no effect

**Q.** What about the “agonist activity in platelet aggregation” value (human platelets) of the same molecule?
**A.** has no effect

**Q.** With `CCCCCCCCCCCCCCCC(=O)N[C@@H](CCCNC(=N)N)C(=O)N[C@@H](CS)C(=O)N[C@@H](CCC(=O)O)C(=O)N[C@@H](CO)C(=O)N[C@@H](CO)C(=O)N[C@@H](CO)C(=O)N[C@@H](C)C(=O)N[C@@H](CCC(=O)O)C(=O)N[C@@H](C)C(=O)N[C@@H](CC(N)=O)C(=O)N[C@@H](CCCNC(=N)N)C(=O)N[C@@H](CO)C(=O)N[C@@H](CCCCN)C(=O)N[C@@H](CCCCN)C(=O)N[C@@H](CCC(=O)O)C(=O)N[C@@H](CCCNC(=N)N)C(=O)N[C@@H](CCC(=O)O)C(=O)N[C@@H](CC(C)C)C(=O)N[C@@H](Cc1ccccc1)C(N)=O` [Pepducin P1pal-19E] (Palmitoyl-RCESSSAEANRSKKERELF-NH2) as the molecule, how does the “Agonist Efficacy” value (PAR1 [1]) read?
**A.** 11 ± 1%

**Q.** And the “loss of agonist activity” value (PAR1 [1])?
**A.** ~90%

**Q.** What about the IC50 (PAR1 [1]; Antagonist IC50) of the same molecule?
**A.** > 50000 nM

**Q.** For `CCCCCCCCCCCCCCCC(=O)N[C@@H](CCCNC(=N)N)C(=O)N[C@@H](CS)C(=O)N[C@@H](CC(C)C)C(=O)N[C@@H](CO)C(=O)N[C@@H](CO)C(=O)N[C@@H](CO)C(=O)N[C@@H](C)C(=O)N[C@H](C(=O)N[C@@H](C)C(=O)N[C@@H](CC(N)=O)C(=O)N[C@@H](CCC(N)=O)C(=O)N[C@@H](CO)C(=O)N[C@@H](CCC(N)=O)C(=O)N[C@@H](CCC(N)=O)C(=O)N[C@@H](CO)C(=O)N[C@@H](CCC(N)=O)C(=O)N[C@@H](C)C(=O)N[C@@H](CC(C)C)C(=O)N[C@@H](Cc1ccccc1)C(N)=O)C(C)C` [Pepducin P1pal-19Q] (Palmitoyl-RCLSSSAVANQSQQSQALF-NH2), which “loss in efficacy, platelet aggregation” value (human platelets; relative to P1pal-19) is on record?
**A.** 2 fold

**Q.** And the “Agonist Efficacy” value (PAR1 [1])?
**A.** 46 ± 8%

**Q.** And the “loss in efficacy, stimulation of InsP” value (PAR1 [1])?
**A.** 2 fold

**Q.** Which “inhibition of PAR1 Ca2+ response” value (PAR1 [2]; [6]) does the source give for `CCCCCCCCCCCCCCCC(=O)N[C@@H](CO)C(=O)NCC(=O)N[C@@H](CCCNC(=N)N)C(=O)N[C@@H](CCCNC(=N)N)C(=O)N[C@@H](Cc1ccc(O)cc1)C(=O)NCC(=O)N[C@@H](Cc1c[nH]cn1)C(=O)N[C@@H](C)C(=O)N[C@@H](CC(C)C)C(=O)N[C@@H](CCCNC(=N)N)C(N)=O` [Pepducin P4pal-10] (Palmitoyl-SGRRYGHALR-NH2) here?
**A.** 36%

**Q.** What about the “attenuation of PAR1 Ca2+ signal” value (PAR1 [2]; [7]) of the same molecule?
**A.** 17-67%

**Q.** And the IC50 (PAR4 [3])?
**A.** 500 to 1000 nM

**Q.** And the “inhibition of PAR4 Ca2+ response” value (PAR4 [4]; [6])?
**A.** 97%

**Q.** And the “attenuation of PAR4 Ca2+ response” value (PAR4 [4]; [7])?
**A.** 50-80%

**Q.** How did the “inhibition of PAR1-dependent Ca2+ response” value (PAR1 [2]; SFLLRN (or thrombin) after peptide pre-treatment) turn out when `CCCCCCCCCCCCCCCC(=O)N[C@@H](Cc1c[nH]cn1)C(=O)N[C@H](C(=O)N[C@@H](CC(C)C)C(=O)N[C@@H](C)C(=O)N[C@@H](C)C(=O)N[C@@H](CO)C(=O)NCC(=O)N[C@@H](CCCNC(=N)N)C(=O)N[C@@H](CCCNC(=N)N)C(=O)N[C@@H](Cc1ccc(O)cc1)C(=O)NCC(=O)N[C@@H](Cc1c[nH]cn1)C(=O)N[C@@H](C)C(=O)N[C@@H](CC(C)C)C(=O)N[C@@H](CCCNC(=N)N)C(N)=O)[C@@H](C)O` [Pepducin P4pal-15] (Palmitoyl-HTLAASGRRYGHALR-NH2) was run?
**A.** without affecting SFLLRN

**Q.** What about the “agonist activity, platelet intracellular Ca2+” value (platelets) of the same molecule?
**A.** had no agonist activity

**Q.** And the IC50 (PAR4 [3])?
**A.** 600 nM

**Q.** And the “inhibition of PAR4-dependent platelet aggregation” value (PAR4 [3]; AYPGKF)?
**A.** effective inhibitor of platelet aggregation

**Q.** And the “inhibition of PAR4-dependent Ca2+ response” value (PAR4 [4]; 3 micromolar pepducin, 200 Micromolar AYPGKF)?
**A.** fully antagonize PAR4 signaling; also recorded: blocked AYPGKF

**Q.** Which “Agonist Efficacy” value [5] does the source give for `CCCCCCCCCCCCCCCC(=O)N[C@@H](CCCCN)C(=O)N[C@H](C(=O)N[C@@H](CCCNC(=N)N)C(=O)N[C@@H](CO)C(=O)N[C@@H](CO)C(=O)NCC(=O)N[C@H](C(=O)N[C@@H](CCCNC(=N)N)C(=O)N[C@H](C(=O)NCC(=O)N[C@@H](CO)C(=O)N[C@@H](CO)C(=O)N[C@@H](CCCCN)C(=O)N[C@@H](CCCNC(=N)N)C(=O)N[C@@H](CCCCN)C(=O)N[C@@H](CCCCN)C(=O)N[C@@H](CO)C(=O)N[C@@H](CCC(=O)O)C(=O)N[C@@H](CCCCN)C(=O)N[C@@H](CCCCN)C(=O)N[C@H](C(=O)N[C@H](C(=O)N[C@@H](Cc1ccccc1)C(N)=O)[C@@H](C)O)C(C)C)C(C)C)[C@@H](C)CC)C(C)C` [Pepducin S2pal-23F] (Palmitoyl-KVRSSGIRVGSSKRKKSEKKVTF-NH2) here?
**A.** 15 ± 4%

**Q.** Which results are given for “FSAVFFFVPL1ISTVCYVSI1RCLSSSAVANRSKKSRALF (FSAVFFFVPLIISTVCYVSIIRCLSSSAVANRSKKSRALF) [Pepducin P1-i3-40]”?
**A.** agonist activity, platelet intracellular Ca2+ (platelets): causes a rapid intracellular Ca^2+ transient; lag phase of Ca2+i transient (platelets): < 5 s

**Q.** “INLKALAALAKKIL [mastoparan, reference compound]” was tested. Which “stimulation of InsP production (agonist activity)” value (PAR1 [1]) did it give?
**A.** did not stimulate InsP production

**Q.** For RSLSSSAVANRSKKSRALF [Pepducin P1-i3-19], which “agonist activity, platelet intracellular Ca2+” value (platelets) is on record?
**A.** causes little stimulation of Ca^2+ fluxes

**Q.** “VCYVSIIRSLSSSAVANRSKKSRALF [Pepducin P1-i3-26]” was tested. Which “agonist activity, platelet intracellular Ca2+” value (platelets) did it give?
**A.** gives a minor, unregulated Ca^2+i response

**Q.** With “VPLIISTVCYVSIIRCLSSSAVANRSKKSRALF [Pepducin P1-i3-33]” as the molecule, how does the “agonist activity, platelet intracellular Ca2+” value (platelets) read?
**A.** has similar potency to the P1-i3-40 peptide

**Q.** How did the “agonist activity in platelet aggregation” value (human platelets) turn out when “Y12pal-18: pepducin based on the i3-loop of P2Y12; peptide YVRTRGVGKVPRKKVNVF (SEQ ID NO:33) (also: palmitoyl lipid, position not given here) [Pepducin Y12pal-18]” was run?
**A.** no agonist activity
